Values of other authors as cited in US20090306081A1, “Solid Dosage Formulations of Hydralazine Compounds and Nitric Oxide Donor Compounds” (priority 2006, published 2009).

In the case of O=[N+]([O-])O[C@H]1CO[C@H]2[C@@H]1OC[C@H]2O[N+](=O)[O-] [Diluted isosorbide dinitrate, 1,4,3,6-dianhydro-D-glucitol-2,5-dinitrate], the “solubility in organic solvents” value (organic solvents such as ethanol, ether and chloroform) is listed as “freely soluble” and the solubility in water (water) is listed as “sparingly soluble”.
